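Method: 48-hour compound exposure of cells in 96-well plates, five concentrations, linear interpolation of endpoints. At the GI50, growth is halved.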 Activity calls are given as the source filed them. Cut-off read from the data, not from the text of the source: active = GI50 up to about 1.1 µM and inactive = higher.
What was measured:
Experiment in all cases: NCI anticancer screen, dose series, 48 h
SN12C = tested on: SN12C
A498 = tested on: A498
UACC-62 = tested on: UACC-62
NCI-H522 = tested on: NCI-H522
SF-295 = tested on: SF-295
CAKI-1 = tested on: CAKI-1
OVCAR-4 = tested on: OVCAR-4
HL-60 = tested on: HL-60
DMS-273 = tested on: DMS-273
NCI-H226 = tested on: NCI-H226
SK-MEL-28 = tested on: SK-MEL-28
NCI-H460 = tested on: NCI-H460
MOLT-4 = tested on: MOLT-4
SF-268 = tested on: SF-268
ACHN = tested on: ACHN
SK-MEL-2 = tested on: SK-MEL-2
HT-29 = tested on: HT-29
SR = tested on: SR
TK-10 = tested on: TK-10

Measured: GI50

CC1NOC(=O)C1/N=N/c1ccc(Cl)cc1Cl (stereo not drawn)
inactive: SN12C 21.6 µM | A498 35.3 µM | UACC-62 30.7 µM | NCI-H522 17.8 µM | SF-295 28.8 µM | CAKI-1 24.4 µM | OVCAR-4 21.6 µM | HL-60 16 µM | DMS-273 20.9 µM | NCI-H226 25.4 µM | SK-MEL-28 38.9 µM | NCI-H460 24.7 µM | MOLT-4 19.6 µM | SF-268 32.2 µM | ACHN 21.4 µM | SK-MEL-2 23.8 µM | HT-29 32.8 µM | SR 18.7 µM | TK-10 23.8 µM

COc1ccc(-c2cc(-c3ccccc3)c(C#N)c(=O)[nH]2)cc1
inactive: SN12C > 100 µM | A498 > 100 µM | UACC-62 > 100 µM | NCI-H522 > 100 µM | SF-295 > 100 µM | OVCAR-4 > 100 µM | HL-60 > 100 µM | DMS-273 > 100 µM | NCI-H226 > 100 µM | SK-MEL-28 > 100 µM | NCI-H460 > 100 µM | MOLT-4 > 100 µM | SF-268 > 100 µM | ACHN > 100 µM | HT-29 > 100 µM | SR > 100 µM | TK-10 > 100 µM

[N-]=[N+]=CC(=O)C1(C(=O)C=[N+]=[N-])CC1
inactive: SN12C > 100 µM | A498 > 100 µM | NCI-H522 > 100 µM | SF-295 > 100 µM | OVCAR-4 > 100 µM | HL-60 > 100 µM | DMS-273 > 100 µM | NCI-H226 > 100 µM | SK-MEL-28 > 100 µM | NCI-H460 > 100 µM | MOLT-4 > 100 µM | SF-268 > 100 µM | ACHN > 100 µM | SK-MEL-2 > 100 µM | HT-29 > 100 µM | SR > 100 µM | TK-10 > 100 µM

CCNC(=O)C#CC(=O)NCC
inactive: SN12C > 100 µM | A498 > 10 µM | UACC-62 > 100 µM | NCI-H522 > 31.1 µM | SF-295 > 100 µM | CAKI-1 > 100 µM | OVCAR-4 > 100 µM | HL-60 > 39.5 µM | DMS-273 17.8 µM | NCI-H226 > 10 µM | SK-MEL-28 > 10 µM | NCI-H460 > 100 µM | MOLT-4 > 100 µM | SF-268 53.7 µM | ACHN > 100 µM | SK-MEL-2 > 100 µM | HT-29 > 100 µM | SR > 41.9 µM | TK-10 > 100 µM

COc1cccc(-c2cc(C(=O)Nc3ccc(Cl)cc3)nc(N)n2)c1
inactive: SN12C 57.7 µM | A498 61.9 µM | UACC-62 42.6 µM | NCI-H522 32.4 µM | SF-295 87.9 µM | CAKI-1 > 100 µM | OVCAR-4 > 100 µM | HL-60 32.7 µM | DMS-273 85.7 µM | NCI-H226 > 100 µM | SK-MEL-28 86.9 µM | NCI-H460 36.8 µM | MOLT-4 38.7 µM | SF-268 65.2 µM | ACHN > 100 µM | SK-MEL-2 > 100 µM | HT-29 45.5 µM | SR 45.1 µM | TK-10 > 100 µM

Cn1c(=O)c2[nH]cnc2n(CC(N)=O)c1=O
inactive: SN12C > 100 µM | A498 > 100 µM | UACC-62 > 100 µM | NCI-H522 > 100 µM | CAKI-1 > 100 µM | DMS-273 > 100 µM | SK-MEL-28 > 100 µM | NCI-H460 > 100 µM | MOLT-4 > 100 µM | SF-268 > 100 µM | ACHN > 100 µM | SK-MEL-2 > 100 µM | HT-29 > 100 µM | SR > 100 µM | TK-10 > 100 µM

COc1ccc2c(CCNS(=O)(=O)c3ccccc3)c(C(C)=O)[nH]c2c1[N+](=O)[O-]
inactive: SN12C > 100 µM | A498 > 100 µM | UACC-62 48.5 µM | NCI-H522 > 100 µM | SF-295 63.7 µM | CAKI-1 > 10 µM | OVCAR-4 28.4 µM | HL-60 > 100 µM | DMS-273 > 100 µM | NCI-H226 43.3 µM | SK-MEL-28 > 10 µM | NCI-H460 > 100 µM | MOLT-4 > 100 µM | SF-268 53.3 µM | ACHN > 100 µM | SK-MEL-2 > 100 µM | HT-29 > 100 µM | SR > 100 µM

O=C(Nc1ccc(Cl)c(Cl)c1)C(=O)Nn1c(S)nc2ccccc2c1=O
inactive: SN12C > 100 µM | A498 > 100 µM | UACC-62 > 100 µM | NCI-H522 > 100 µM | SF-295 > 100 µM | CAKI-1 > 100 µM | OVCAR-4 > 100 µM | HL-60 > 100 µM | DMS-273 > 100 µM | NCI-H226 > 100 µM | SK-MEL-28 > 100 µM | NCI-H460 > 100 µM | MOLT-4 > 100 µM | SF-268 > 100 µM | ACHN > 100 µM | SK-MEL-2 > 100 µM | HT-29 > 100 µM | SR > 100 µM | TK-10 > 100 µM
